Numbers after ± are expanded uncertainties.
Details: 101.33 kPa, Liquid; for speed of sound: Sing-around technique in a fixed-path interferometer; for mass density: Vibrating tube method

Row | SMILES | speed of sound (293.15 K) | mass density (293.15 K) | speed of sound (298.15 K) | mass density (298.15 K) | speed of sound (303.15 K) | mass density (303.15 K)
1 | CCCNCCC [dipropylamine] | 1209.4 ± 1.2 m/s | 738.259 ± 0.25 kg/m3 | 1188 ± 1.2 m/s | 733.81 ± 0.25 kg/m3 | 1167.6 ± 1.2 m/s | –
2 | CCCCNCCCC [dibutylamine] | 1261.2 ± 0.83 m/s | 759.529 ± 0.16 kg/m3 | 1241.4 ± 0.82 m/s | 755.577 ± 0.16 kg/m3 | 1222.2 ± 0.82 m/s | 751.407 ± 0.16 kg/m3
3 | CCCCCC(C)=O [2-heptanone] | 1281.9 ± 1.2 m/s | 815.433 ± 0.24 kg/m3 | 1262.5 ± 1.2 m/s | 811.139 ± 0.24 kg/m3 | 1244.1 ± 1.2 m/s | 806.827 ± 0.24 kg/m3
4 | CCN(CC)CC [triethylamine] | 1132.5 ± 0.8 m/s | 727.333 ± 0.17 kg/m3 | 1110.9 ± 0.8 m/s | 722.729 ± 0.17 kg/m3 | 1090.7 ± 0.78 m/s | 718.092 ± 0.17 kg/m3

Reference: the NIST ThermoML archive (doi:10.1016/j.jct.2011.05.003)
